Data taken from patent US20020040027A1, “Method for the prevention of the reinfestation of warm-blooded animals by ectoparasites” (priority 1996, published 2002).

Assays:
[1] = system: cat fleas [Ctenocephalides felis]; experiment: Flea control by oral administration of the active ingredient to the host animal (cats); format: in vivo; details: cats infected with 100 cat fleas, treated orally on day 0 with 50 mg/kg of body weight (capsule); after 45 days
Description: Flea control by oral administration of the active ingredient to the host animal 20 cats with the proven ability permanently to maintain a flea population are divided into 6 groups: 5 groups each being composed of 3 or 4 animals and a sixth group, which serves as the control group, being composed of 2 animals. Each of the cats is infected with 100 cat fleas [Ctenocephalides felis]. The cats of the 5 groups are treated orally on day 0 with 50 mg of active ingredient per kg of body weight. The active ingredient is administered in the form of a capsule. The control group remains untreated. […] The eggs are counted and placed on a medium suitable for the growth of larvae and incubated. The number of pupae and fully grown fleas that develop is determined.

Amblyomma hebraeum = experiment: Tick control by subcutaneous administration of the active ingredient to the host animal (chicks); format: in vivo; details: subcutaneously injected dose of 3 mg/kg of body weight, treated vs untreated chicks; for % reduction nymphs: nymphs moulted from collected larvae; for % reduction larvae: replete larvae
Description: Tick control by subcutaneous administration of the active ingredient to the host animal
13 day-old chicks of a fattened breed are infected with about 200 larvae of the tick species Amblyomma hebraeum and placed in pairs in cages. After three days, the chicks are injected subcutaneously with the active ingredient in an aqueous suspension. Within 2 to 6 days of the treatment, i.e. 5 to 9 days after infection, the replete tick larvae fall from the chicks can be collected and counted. The activity of the test compounds is calculated on the basis of the number of replete larvae on treated and untreated chicks in accordance with the formula [formula]
where Ct is the average number of larvae from treated chicks and Cu is the average number of larvae from untreated chicks.
In order to determine this type of activity, the replete larvae are kept, separated into treatment groups, in an incubator until all the larvae collected from untreated chicks have moulted. The activity is calculated using the above mentioned formula, with the average number of nymphs being used instead of the average number of larvae.
Reduction of more than + 80 % can be regarded as systemic action.

Row | Compound | inhibition of the development of fleas [1] | % reduction nymphs (Amblyomma hebraeum) | % reduction larvae (Amblyomma hebraeum)
1 | CC1(C)OCC(COc2ccc(Oc3cccc(F)c3)cc2)O1 (stereo not shown) [2-dimethyl-4-[4-(3-fluorophenoxy)-phenoxymethyl]-1,3-dioxolane] | 100% | – | –
2 | c1ccc(Oc2ccc(OCC3COC(C4CC4)O3)cc2)cc1 (stereo not shown) [compound 2, 2-cyclopropyl-4-[4-(phenoxy)-phenoxymethyl]-1,3-dioxolane] | – | 83% | 82%
3 | CCC1OCC(C)(COc2ccc(Oc3cccc(F)c3)cc2)O1 (stereo not shown) [compound 1, 2-ethyl-4-[4-(3-fluorophenoxy)-phenoxymethyl]-4-methyl-1,3-dioxolane] | – | 83% | 83%
4 | CC1(C)OCC(COc2ccc(Oc3cc(F)cc(F)c3)cc2)O1 (stereo not shown) [2-dimethyl-4-[4-(3,5-difluorophenoxy)-phenoxymethyl]-1,3-dioxolane] | 100% | – | –
5 | CCC1OCC(COc2ccc(Oc3cccc(F)c3)cc2)O1 (stereo not shown) [compound 3, 2-ethyl-4-[4-(3-fluorophenoxy)-phenoxymethyl]-1,3-dioxolane] | 100% | 80% | 78%
6 | CC(C)C1OCC(COc2ccc(Oc3cc(F)cc(F)c3)cc2)O1 (stereo not shown) [4-[4-(3,5-difluorophenoxy)-phenoxymethyl]-2-isopropyl-1,3-dioxolane] | 100% | – | –
